The subject of assay [1] is Enterococcus faecalis. The assay can be described thus: Antibacterial activity against Enterococcus faecalis ATCC 29212 assessed as minimum inhibitory concentration incubated for 24 hrs by broth microdilution method. The class given is functional.
Assay [2] deals with Klebsiella pneumoniae. The assay can be described thus: Antibacterial activity against Klebsiella pneumoniae ATCC 29665 assessed as minimum inhibitory concentration incubated for 16 to 18 hrs by broth microdilution method. Format: functional. As to conditions: time 16-18 hrs. (In general: Broth dilution looks for growth in wells or tubes with falling amounts of substance.)

Converted amounts (≈) assume the structure as drawn.

As usually defined, the MIC90 is the lowest concentration that inhibits either 90% of growth or 90% of the strains tested, depending on the study. Turning to `CN(CC[C@H](N)CC(=O)N[C@H]1C=C[C@H](n2ccc(N)nc2=O)O[C@@H]1C(=O)O)C(=N)N` [BLASTICIDIN_S], in assay [1], the MIC90 was 32 µg/mL (≈ 75.7 µM). Still for that read-out and setting: the value for `CN(C)C(=O)[C@H]1O[C@@H](n2ccc(N)nc2=O)C=C[C@@H]1NC(=O)C[C@@H](N)CCN(C)C(=N)N` was 16 µg/mL (≈ 35.6 µM). Consider `CCCNC(=O)[C@H]1O[C@@H](n2ccc(N)nc2=O)C=C[C@@H]1NC(=O)C[C@@H](N)CCN(C)C(=N)N`, for which, in assay [2], the MIC90 was 128 µg/mL (≈ 276 µM). Regarding `CNC(=O)[C@H]1O[C@@H](n2ccc(N)nc2=O)C=C[C@@H]1NC(=O)C[C@@H](N)CCN(C)C(=N)N`, in assay [1], the MIC90 came to 16 µg/mL (≈ 36.7 µM).

Values taken from ChEMBL document CHEMBL5344464, “Forgotten Natural Products: Semisynthetic Development of Blasticidin S As an Antibiotic Lead” (ACS Med Chem Lett, 2024).
